Tests used:
[1] = molecular target: T1, Nitric oxide synthase, inducible (Mus musculus, UniProt P29477); assay: Inhibition of iNOS in mouse ANA1 cells; assay type: cell-based
T1 sequence (P29477 whole entry): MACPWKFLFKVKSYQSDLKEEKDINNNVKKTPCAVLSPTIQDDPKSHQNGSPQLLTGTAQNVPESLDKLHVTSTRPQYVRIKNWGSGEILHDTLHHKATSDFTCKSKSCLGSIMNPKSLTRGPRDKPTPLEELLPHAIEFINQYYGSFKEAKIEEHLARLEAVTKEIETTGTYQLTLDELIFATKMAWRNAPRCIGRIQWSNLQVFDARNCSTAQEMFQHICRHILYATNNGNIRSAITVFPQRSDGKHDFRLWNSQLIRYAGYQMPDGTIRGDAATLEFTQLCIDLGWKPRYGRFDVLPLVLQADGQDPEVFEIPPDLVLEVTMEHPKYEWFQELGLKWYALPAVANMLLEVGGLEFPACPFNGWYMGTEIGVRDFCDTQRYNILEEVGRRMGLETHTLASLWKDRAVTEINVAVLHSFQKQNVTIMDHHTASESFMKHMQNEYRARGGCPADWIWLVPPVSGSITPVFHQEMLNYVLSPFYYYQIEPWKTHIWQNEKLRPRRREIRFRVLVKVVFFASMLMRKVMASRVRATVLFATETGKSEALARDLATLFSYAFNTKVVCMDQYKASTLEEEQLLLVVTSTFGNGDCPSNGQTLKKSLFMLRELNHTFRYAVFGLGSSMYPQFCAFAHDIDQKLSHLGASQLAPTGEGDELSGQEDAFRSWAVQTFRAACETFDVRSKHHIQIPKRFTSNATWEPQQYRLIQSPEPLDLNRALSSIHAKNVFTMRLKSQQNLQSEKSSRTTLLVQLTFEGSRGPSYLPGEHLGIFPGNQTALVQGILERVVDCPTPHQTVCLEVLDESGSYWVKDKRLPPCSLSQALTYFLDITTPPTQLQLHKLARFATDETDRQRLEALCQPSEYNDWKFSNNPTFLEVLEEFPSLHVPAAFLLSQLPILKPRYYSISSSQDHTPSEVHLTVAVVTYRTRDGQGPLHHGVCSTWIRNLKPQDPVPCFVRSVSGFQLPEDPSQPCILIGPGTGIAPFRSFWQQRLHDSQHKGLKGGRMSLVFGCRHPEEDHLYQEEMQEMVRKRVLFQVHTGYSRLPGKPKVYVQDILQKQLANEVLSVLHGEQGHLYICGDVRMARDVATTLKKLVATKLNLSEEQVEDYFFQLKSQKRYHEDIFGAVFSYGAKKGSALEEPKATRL

[2] = molecular target: Proto-oncogene tyrosine-protein kinase Src (Homo sapiens, UniProt P12931); assay: Inhibition of cSrc
HepG2 = assay: Antiproliferative activity against human HepG2 cells assessed as survival at 10 uM by sulforhodamine B assay; assay type: functional; settings: read-out: Activity
A549 = assay: Antiproliferative activity against human A549 cells assessed as survival at 10 uM by sulforhodamine B assay; assay type: functional; settings: read-out: Activity
PC-3 = assay: Antiproliferative activity against human PC3 cells assessed as survival at 10 uM by sulforhodamine B assay; assay type: functional; settings: read-out: Activity
HT-29 = assay: Antiproliferative activity against human HT-29 cells assessed as survival at 10 uM by sulforhodamine B assay; assay type: functional; settings: read-out: Activity
AGS = assay: Antiproliferative activity against human AGS cells assessed as survival at 10 uM by sulforhodamine B assay; assay type: functional; settings: read-out: Activity

Chain of Proto-oncogene tyrosine-protein kinase Src (P12931 2-536 limits assumed): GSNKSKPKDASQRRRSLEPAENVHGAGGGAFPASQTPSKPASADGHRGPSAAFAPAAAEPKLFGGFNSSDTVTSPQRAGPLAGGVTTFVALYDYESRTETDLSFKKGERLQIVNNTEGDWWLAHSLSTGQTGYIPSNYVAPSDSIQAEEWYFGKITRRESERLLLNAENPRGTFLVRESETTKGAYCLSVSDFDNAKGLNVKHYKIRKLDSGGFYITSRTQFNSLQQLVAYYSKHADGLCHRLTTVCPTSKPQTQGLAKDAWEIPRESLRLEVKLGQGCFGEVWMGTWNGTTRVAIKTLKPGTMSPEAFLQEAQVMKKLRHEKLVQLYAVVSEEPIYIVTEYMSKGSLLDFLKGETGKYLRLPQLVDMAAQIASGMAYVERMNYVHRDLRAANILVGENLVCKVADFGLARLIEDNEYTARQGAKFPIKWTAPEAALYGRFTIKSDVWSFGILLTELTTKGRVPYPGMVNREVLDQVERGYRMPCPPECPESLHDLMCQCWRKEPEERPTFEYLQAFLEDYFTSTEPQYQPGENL

Cc1cc2c(Nc3ccc4nc(N)sc4c3)c(C#N)cnc2cc1OCCCN1CC(C)NC(C)C1 (configuration not stated)
IC50 [1]: 89.1 µM | IC50 [2]: 36.6 nM

Cc1cc2c(Nc3ccc4nc(N)sc4c3)c(C#N)cnc2cc1OCCCN1CC(C)CC(C)C1 (configuration not stated)
viability at 10 µM (HepG2): 42.2% | IC50 [1]: 10.5 µM | viability at 10 µM (A549): 53.6% | viability at 10 µM (PC-3): 63% | viability at 10 µM (HT-29): 60.6% | viability at 10 µM (AGS): 65.5% | IC50 [2]: 267 nM

Cc1cc2c(Nc3ccc4nc(N)sc4c3)c(C#N)cnc2cc1OCCCN1CCC(C)CC1
IC50 [1]: 12.7 µM | IC50 [2]: 53.4 nM

Cc1cc2c(Nc3ccc4nc(N)[nH]c4c3)c(C#N)cnc2cc1OCCCN(C)C
IC50 [1]: 13.2 µM | IC50 [2]: 143 nM

Cc1cc2c(Nc3ccc4nc(N)[nH]c4c3)c(C#N)cnc2cc1OCCCN1CCCC1
IC50 [1]: 24.8 µM | IC50 [2]: 159 nM

COc1cc2c(Nc3ccc4nc(N)sc4c3)c(C#N)cnc2cc1OCCCN1CCNCC1
IC50 [1]: 105 µM | IC50 [2]: 20.7 nM

Cc1cc2c(Nc3ccc4nc(N)sc4c3)c(C#N)cnc2cc1OCCN1CCCCC1
viability at 10 µM (HepG2): 55.4% | IC50 [1]: 26.7 µM | viability at 10 µM (A549): 55.4% | viability at 10 µM (PC-3): 77.7% | viability at 10 µM (HT-29): 42.7% | viability at 10 µM (AGS): 61% | IC50 [2]: 34.8 nM

Cc1cc2c(Nc3ccc4nc(N)sc4c3)c(C#N)cnc2cc1OCCCN1CCN(C)CC1
viability at 10 µM (HepG2): 40.5% | IC50 [1]: 37.1 µM | viability at 10 µM (A549): 64.1% | viability at 10 µM (PC-3): 59.5% | viability at 10 µM (HT-29): 31.6% | viability at 10 µM (AGS): 68.1% | IC50 [2]: 50.6 nM

Cc1cc2c(Nc3ccc4nc(N)sc4c3)c(C#N)cnc2cc1OCCCN1CCOCC1
IC50 [1]: 31.8 µM | IC50 [2]: 81.1 nM

Cc1cc2c(Nc3ccc4nc(N)sc4c3)c(C#N)cnc2cc1OCCCN1CCNCC1
IC50 [1]: 17.3 µM | IC50 [2]: 129 nM

CCN(CC)CCCOc1cc2ncc(C#N)c(Nc3ccc4nc(N)sc4c3)c2cc1C
IC50 [1]: 46.8 µM | IC50 [2]: 42 nM

COc1cc(Nc2c(C#N)cnc3cc(OCCCN4CCN(C)CC4)c(OC)cc23)c(Cl)cc1Cl [BOSUTINIB]
viability at 10 µM (HepG2): 9.2% | viability at 10 µM (A549): 9.32% | viability at 10 µM (PC-3): 7.81% | viability at 10 µM (HT-29): 2.84% | viability at 10 µM (AGS): 3.8%

From ChEMBL document CHEMBL1152265, “The design, synthesis and biological evaluation of 7-alkoxy-4-heteroarylamino-3-cyanoquinolines as dual inhibitors of c-Src and iNOS” (Bioorg Med Chem Lett, 2008)
